From US5773239A, “Mannosidase inhibitors, process for their preparation and their use as therapeutic agents” (Mount Sinai Hospital Corporation., priority 1995, dated 1998)

Assays:
[1] = system: bone marrow cells; test: Bone marrow cell proliferation assay; format: in vivo, C57B1/6J mice; settings: 10 ug/injection i.p. twice daily, four days; mean +/- S.E. of 4 experiments
Method: Pathogen-free C57B1/6J mice, 8-14 weeks old were maintained according to NIH ethical guidelines. Groups of 2-3 mice received intraperitoneal injections of the PBS, SW or designated analog twice daily for 4 days. […] Eighteen hours after the last SW injection, mice were sacrificed and BM cells were harvested. Marrow cell suspensions were prepared under sterile conditions using femurs and tibias of both legs from each donor. Bone marrow (BM) cells were flushed from the marrow cavities with ice-cold RPMI 1640, washed and resuspended at desired concentrations in RPMI-1640 supplemented with 5% FCS, penicillin (100 U/ml) and streptomycin (100 μg/ml). Cell viability was monitored by staining with trypan blue. The ability of the analogues to stimulate BM proliferation was measured by two methods. First, cellularity was determined by directly counting BM cells after they were flushed from the tibias and femurs. Second, enhancement in proliferation was assessed by the increase in the proportion of BM progenitor cells present in the BM preparations as measured by colony formation in soft agar (CFU). BM cells were processed according to the procedures of the GIBCO-BRL Mouse Bone Marrow Stem Cell Proliferation Kit, which employs suspensions of mononuclear cells in a semi-solid methylcellulose medium containing FCS. 2-mercaptoethanol and the growth factors, interleukin-3 (IL-3) (75 U/ml) and erythropoietin (20 U/ml). The plates were incubated for 10-14 days at 37° C. in a humidified atmosphere of 5% CO2 and 95% air, and colonies consisting of at least 40 cells were enumerated using an inverted microscope. The potential colonies that form in the semi-solid medium are the granulocyte, erythrocyte, monocyte, megakaryocyte (ie. CFU-GEMM); the granulocyte, macrophage (ie. CFU-GM), and the burst forming unit-erythroid(ie BFUe).
Mice were given twice daily intraperitoneal injections of PBS, SW or the analogues at 10 ug/injection. After four days of injections, BM cells were flushed from the femurs and tibias and counted. CFUs growing in soft agar consisting of at least 40 cells were enumerated. The results are the mean +/-S.E. of 4 experiments.

[2] = system: B16F10 melanoma cells; test: Lung colonization assay; format: in vivo, C57B1/6J mice; settings: for Survivors at day 28: injected i.v.; for survival of mice 28 days after injection of treated tumor cells: versus 2-toluoyloxy-SW treated or untreated B16F10 cells
Method: B16F10 melanoma cells were maintained in log-phase growth in MEM plus 10% FCS (Gibco) either untreated or treated for 48 hr with SW or analogues of SW. Cells were harvested with trypsin/EDTA (Gibco), washed and 10^5 melanoma cells in 100 μl of phosphate buffered saline (PBS) were injected into the lateral tail vein of male C57B1/6J mice. The lungs were removed from the mice and tumor nodules were counted at death or on day 28 when the experiment was terminated.
B16F10 melanoma cells were injected into the lateral tail vein of C57B1/6 mice at 10^5 cells/mouse. […] The experiment was terminated on day 28 and lung colonies in the mice were counted.

[3] = target: lysosomal mannosidase; test: Lysosomal mannosidase assay (pH 5.0); format: biochemical; settings: para-nitrophenyl α-mannose
Method: The assay for rat liver Golgi α-mannosidase II contained 5 mM para-nitrophenylα-mannose, 40 mM sodium acetate pH 5.6, plus serially diluted test compouunds and mannosidase enzyme in a total volume of 50 ul, in 96 well plates. Plates were incubated 45 min at 37° C., then the reaction was stopped with 50 μl of 0.5M sodium carbonate. The absorbance of reaction products was read at 405 nm. The lysosomal mannosidase was done in the same procedure but with 40 mM sodium acetate buffer pH 5.0. The numbers in the table are IC50 values in μM for inhibition of mannosidase activity.

[4] = system: MDAY-D2 tumor cells; settings: cited from earlier work
[5] = system: B16F10 melanoma cells; settings: 1000 ng/ml; cited from earlier work
[6] = tumor cells cultured 48 hr with 0.02 ug/ml drug
[7] = tumor cells cultured 48 hr with 0.1 ug/ml drug
[8] = tumor cells cultured 48 hr with 1.0 ug/ml drug

| SMILES | BM cellularity [1] [cells × 10^7] | CFU [1] [colonies/10^7 cells] | lung colonies (mean ± range) [2, 6] | Survivors at day 28 [2, 6] | lung colonies (mean ± range) [2, 7] | Survivors at day 28 [2, 7] | lung colonies (mean ± range) [2, 8] | Survivors at day 28 [2, 8] | survival of mice 28 days after injection of treated tumor cells [2] | IC50 [3] [nM] | L-PHA concentration to which cells cultured in the presence of SW are resistant [4] [µg/mL] | inhibition of organ colonization by B16F10 melanoma cells [5] [%] |
| --- | --- | --- | --- | --- | --- | --- | --- | --- | --- | --- | --- | --- |
| O=C(OC1CN2CCCC(O)C2C1O)c1ccccc1 (centres unmarked) [2-benzoyloxy-SW] | 5.77 ± 0.00 | 421 ± 44 |  |  |  |  |  |  |  |  |  |  |
| CCCC(=O)OC1CN2CCCC(O)C2C1O (centres unmarked) [2-butanoyloxy-SW] | 3.80 ± 0.91 | 545 ± 59 |  |  |  |  |  |  |  |  |  |  |
| CCCCCCCC(=O)OC1CN2CCCC(O)C2C1O (centres unmarked) [2-octanoyloxy-SW] |  | 482 ± 22 | 9 (5-17) | 3/5 | 13 (8-20) | 3/5 | 1 (0-2) | 2/5 | significantly higher |  |  |  |
| O=C(OC1CN2CCCC(O)C2C1O)c1ccc([N+](=O)[O-])cc1 (centres unmarked) [2-p-nitrobenzoyloxy-SW] | 3.60 ± 0.42 | 380 ± 7 |  |  |  |  |  |  |  |  |  |  |
| Cc1ccc(C(=O)O[C@@H]2CN3CCC[C@@H](O)[C@@H]3[C@@H]2O)cc1 [2-toluoyloxy-SW] | 3.40 ± 0.25 | 384 ± 25 |  |  | > 100 | 0/5 | > 100 | 0/5 |  |  |  |  |
| OC1CN2C[C@@H](O)[C@@H](O)[C@H]2[C@H](O)C1O (some centres unmarked) [6,7-dihydroxy-SW] | 5.20 ± 0.03 | 538 ± 5 |  |  |  |  |  |  |  |  |  |  |
| CCCCCCCCCCCCCC(=O)OC1CCCN2CC(O)C(O)C12 (centres unmarked) [8-myristinoyloxy-SW] | 4.80 ± 0.24 | 226 ± 6 |  |  |  |  |  |  |  |  |  |  |
| CCCCCCCCCCCCCCCC(=O)OC1CCCN2CC(O)C(O)C12 (centres unmarked) [8-palmitoyloxy-SW] | 5.10 ± 0.57 | 553 ± 32 |  |  |  |  |  |  |  |  |  |  |
| O[C@H]1[C@H]2[C@H](O)CCCN2C[C@H]1O [SW, Swainsonine, reference compound] | 4.50 ± 0.42 | 540 ± 34 | 23 (15-31) | 2/5 | 5 (2-10) | 4/5 | 3 (0-4) | 4/5 | significantly higher | 82 | > 100 | > 90 |
